Results taken from publication PMC10492212 (Journal of Ayurveda and Integrative Medicine, 2023).
Converted amounts (≈) assume the structure as drawn.

Molecular target: intestinal α-glucosidase
Test: sucrose hydrolysis, glucose oxidase-peroxidase, absorbance […] nm
Format: biochemical
Details: phosphate buffer pH 7.5, 20 min pre-incubation at 37 °C

**Q.** `C[C@H]1O[C@H](O[C@H]2[C@H](O)[C@@H](O)[C@@H](O[C@H]3[C@H](O)[C@@H](O)C(O)O[C@@H]3CO)O[C@@H]2CO)[C@H](O)[C@@H](O)[C@@H]1N[C@H]1C=C(CO)[C@@H](O)[C@H](O)[C@H]1O` (stereo partly shown) [acarbose] was tested. Which IC50 did it give?
**A.** 52.5 ± 2.67 mg/L (≈ 81.3 µM)
